Assay results from patent US20260242388A1, “NBD1 MODULATORS AND METHODS OF USING THE SAME” (Sionna Therapeutics Inc., priority 2023, published 2026).

How the values were obtained:
[1] = target: T1, CFTR (Homo sapiens, UniProt P13569, DEL508-508); experiment: TECC24 recording of CFTR-mediated transepithelial chloride transport in ΔF508 homozygous CF-HBE cells; type: cell-based; conditions: 48 hours incubation, AUC of forskolin-stimulated IEQ, test agent AUC divided by vehicle (DMSO) AUC, primary CF-HBE cells
T1 construct: Primary human bronchial epithelial cells from a ΔF508 homozygous CF donor; host or cells: primary CF-HBE cells, ΔF508 homozygous donor
T1 sequence (P13569 with tags, fused parts or gaps DEL508-508): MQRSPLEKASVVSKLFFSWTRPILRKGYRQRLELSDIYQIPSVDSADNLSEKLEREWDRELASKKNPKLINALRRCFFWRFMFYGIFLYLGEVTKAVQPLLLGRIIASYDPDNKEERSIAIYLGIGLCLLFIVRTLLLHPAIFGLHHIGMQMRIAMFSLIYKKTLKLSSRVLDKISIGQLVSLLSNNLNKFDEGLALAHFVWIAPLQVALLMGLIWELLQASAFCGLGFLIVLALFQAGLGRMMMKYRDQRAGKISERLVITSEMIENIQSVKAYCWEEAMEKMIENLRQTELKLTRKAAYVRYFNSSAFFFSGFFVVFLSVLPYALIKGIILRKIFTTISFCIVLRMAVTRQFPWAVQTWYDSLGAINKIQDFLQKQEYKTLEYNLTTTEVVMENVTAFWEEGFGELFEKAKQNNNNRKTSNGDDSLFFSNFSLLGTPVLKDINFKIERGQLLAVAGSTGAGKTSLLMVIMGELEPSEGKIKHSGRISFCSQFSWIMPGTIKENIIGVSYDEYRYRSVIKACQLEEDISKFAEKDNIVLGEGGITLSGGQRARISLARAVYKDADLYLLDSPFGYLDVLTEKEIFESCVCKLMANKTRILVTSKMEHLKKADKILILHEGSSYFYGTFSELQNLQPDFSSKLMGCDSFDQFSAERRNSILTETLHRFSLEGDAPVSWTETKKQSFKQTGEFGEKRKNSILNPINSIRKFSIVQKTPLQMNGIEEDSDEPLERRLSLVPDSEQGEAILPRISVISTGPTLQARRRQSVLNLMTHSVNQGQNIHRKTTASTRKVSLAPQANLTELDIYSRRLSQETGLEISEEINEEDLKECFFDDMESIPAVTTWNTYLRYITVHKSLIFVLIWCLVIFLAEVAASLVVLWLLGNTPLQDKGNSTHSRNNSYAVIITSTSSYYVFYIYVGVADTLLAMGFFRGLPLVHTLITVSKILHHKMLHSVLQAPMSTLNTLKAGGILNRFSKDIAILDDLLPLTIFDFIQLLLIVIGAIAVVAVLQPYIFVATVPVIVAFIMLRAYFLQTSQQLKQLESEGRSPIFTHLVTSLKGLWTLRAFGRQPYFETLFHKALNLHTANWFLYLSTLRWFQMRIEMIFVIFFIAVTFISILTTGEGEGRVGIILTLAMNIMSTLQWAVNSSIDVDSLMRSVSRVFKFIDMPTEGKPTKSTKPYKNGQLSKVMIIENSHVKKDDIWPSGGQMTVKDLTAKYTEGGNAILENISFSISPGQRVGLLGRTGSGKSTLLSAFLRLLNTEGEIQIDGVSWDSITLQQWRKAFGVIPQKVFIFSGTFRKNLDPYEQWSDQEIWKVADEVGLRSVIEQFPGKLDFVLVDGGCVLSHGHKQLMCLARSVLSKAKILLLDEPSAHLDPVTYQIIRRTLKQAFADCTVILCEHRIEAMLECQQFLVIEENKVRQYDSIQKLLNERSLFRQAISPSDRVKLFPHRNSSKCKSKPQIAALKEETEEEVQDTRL
Method: Example 24. TECC24 AUC Fold Over DMSO @10 μM
The effects of a test agent on CFTR-mediated transepithelial chloride transport was measured using TECC24 recording analysis. Test agents were solubilized in DMSO. Solubilized test agents were mixed with incubation medium containing DMEM/F12, Ultroser G (2%; Crescent Chemical, catalog #67042), Hyclone Fetal Clone 11 (2%; GE Healthcare, catalog #SH30066.02), bovine brain extract (0.25%; Lonza, catalog #CC-4098), insulin (2.5 μg/mL), IL-13 (10 ng/mL), hydrocortisone (20 nM), transferrin ([…]), triiodothyronine (500 nM), ethanolamine (250 nM), epinephrine (1.5 μM), phosphoethanolamine (250 nM), and retinoic acid (10 nM). Primary human bronchial epithelial cells from a ΔF508 homozygous CF donor (CF-HBE cells; from University of North Carolina Cystic Fibrosis Tissue Procurement Center), grown on Transwell HTS 24-well cell culture inserts (Costar, catalog #3378), were exposed to test agents or controls dissolved in incubation medium. The CF-HBE cells were cultured at 36.5° C. for 48 hours before TECC24 recordings were performed in the presence or absence of test agent, a positive control or vehicle (DMSO).
Following incubation, the transwell cell culture inserts containing the test agent or control-treated CF-HBE cells were loaded onto a TECC24 apparatus (TECC v7 or MTECC v2; EP Design) to record the transepithelial voltage (VT) and resistance (TEER) using 4 AgCl electrodes per well configured in current-clamp mode. The apical and basolateral bath solutions both contained (in mM) 140 NaCl, 5 KCl, 2 CaCl2), 1 MgCl2, 10 Hepes, and 10 glucose (adjusted to pH 7.4 with NaOH). To inhibit basal Na+ absorption, the ENaC inhibitor benzamil (10 μM) was added to the bath. Then, the adenylate cyclase activator, forskolin (10 μM), was added to the bath to activate CFTR. The forskolin-stimulated Cl− transport was halted by addition of CFTR inhibitor-172 (20 μM) to the bath at the end of the experiment to confirm specificity. VT and TEER recordings were digitally acquired at routine intervals using TECC or MTECC software (EP Design). VT and TEER were transformed into equivalent transepithelial Cl− current (IEQ), and the Area Under the Curve (AUC) of the IEQ time course between forskolin and CFTR inhibitor-172 addition is generated using Excel (Microsoft). Efficacy is expressed as the ratio of the test agent AUC divided by vehicle AUC. EC50s based on AUC are generated using the non-linear regression log(agonist) vs. response function in Prism software (Graphpad) with HillSlope fixed=1.
If a test agent increased the AUC of the forskolin-stimulated IEQ relative to vehicle in CF-HBE cells, and this increase was inhibited by CFTR inhibitor-172, then the test agent was considered a CFTR corrector.

[2] = test system: NBD1; experiment: Aggregation analysis using differential static light scattering (DSLS), thermal stability of NBD1; type: binding, Human; conditions: 100 μM compound; ΔTagg = Tagg minus average Tagg of DMSO control wells; NBD1 0.2 mg/ml
Method: Example 23. Aggregation Analysis Using Differential Static Light Scattering (DSLS)
Purified recombinant NBD1 was produced using previously described methods (A. Schmidt, J. L. Mendoza, P. J. Thomas (2011) Biochemical and Biophysical Approaches to Probe CFTR Structure (365-376) M. D. Amaral, K. Kunzelmann (eds.), Cystic Fibrosis, Methods in Molecular Biology 741, Springer Science+Business Media). The effect of test compounds on thermal stability of NBD1 was evaluated by differential static light scattering (DSLS) using the Harbinger Stargazer-384 instrument (Epiphyte Three, Toronto, Canada). Test compounds were dissolved and diluted to desired concentrations in 100% DMSO. The compounds or DMSO controls (100 nL) were stamped into wells of a […] low volume optical plate (Corning Inc., Corning, NY) using the Echo 555 acoustic liquid handler (Labcyte Inc., San Jose, CA).
NBD1 protein was diluted to 0.2 mg/ml in S200 buffer (50 mM Tris-HCl, 150 mM NaCl, 5 mM MgCl2, 2 mM ATP, 2 mM DTT, pH7.6) containing 1% glycerol. 10 μL of protein solution was aliquoted into the 384-well plate harboring the test compounds and 10 μL mineral oil was overlayed onto the protein solution, using the epMotion robotic liquid handler (Eppendorf North America, Hauppauge, NY). After placing into the Stargazer instrument, the plate was heated at 1° C. per minute to 70° C. Images were captured from 25° C. to 70° C. every 0.5° C. At the end of the experiment run, instrument software integrated image files and analyzed data automatically. A linear regression curve was generated for each well, representing the increase in light scattering over time. A temperature of aggregation (Tagg) was calculated based on the inflection point of the curve. To better compare data across experiments the average Tagg for DMSO control wells was calculated and subtracted from values for wells containing compounds to obtain a “ΔTagg” value. These ΔTagg values reflect stabilizing efficacy of the compounds.

Row | SMILES | TECC24 @ 10 uM over DMSO [1] | DSLS NBD1/3D Human Stability delta-T (° C.) @ 100 (μM) [2]
1 | O=C(O)Cc1cccc(C2OCCc3cn(-c4cc(Oc5c(F)cc6[nH]ccc6c5F)ccc4F)nc32)c1F (stereo not shown) [Example 1, 2-(3-(2-(5-((4,6-difluoro-1H-indol-5-yl)oxy)-2-fluorophenyl)-2,4,5,7-tetrahydropyrano[3,4-c]pyrazol-7-yl)-2-fluorophenyl)acetic acid] | C (AUC @10 uM <= 4) | B (4-8° C.)
2 | Cc1c(-c2cc(Oc3c(F)cc4[nH]ccc4c3S(C)(=O)=O)ccc2F)nc2n1CCNC2c1cccc(CC(C)C(=O)O)c1F (stereo not shown) [Example 8, 3-[2-fluoro-3-[2-[2-fluoro-5-[(6-fluoro-4-methylsulfonyl-1H-indol-5-yl)oxy]phenyl]-3-methyl-5,6,7,8-tetrahydroimidazo[1,2-a]pyrazin-8-yl]phenyl]-2-methyl-propanoic acid] | C (AUC @10 uM <= 4) | A (T ≥ 8° C.)
3 | CC(Cc1cccc(C2c3nc(-c4cc(Oc5c(F)cc6[nH]ccc6c5F)ccc4F)[nH]c3CCN2C)c1F)C(=O)O (stereo not shown) [Example 11, 3-[3-[2-[5-[(4,6-difluoro-1H-indol-5-yl)oxy]-2-fluoro-phenyl]-5-methyl-1,4,6,7-tetrahydroimidazo[4,5-c]pyridin-4-yl]-2-fluoro-phenyl]-2-methyl-propanoic acid] | C (AUC @10 uM <= 4) | A (T ≥ 8° C.)
4 | O=C(O)CCc1cccc(C2c3nc(-c4cc(Oc5c(F)cc6[nH]ccc6c5F)ccc4F)[nH]c3CCN2CC(F)F)c1F (stereo not shown) [Example 12, 3-[3-[5-(2,2-difluoroethyl)-2-[5-[(4,6-difluoro-1H-indol-5-yl)oxy]-2-fluoro-phenyl]-1,4,6,7-tetrahydroimidazo[4,5-c]pyridin-4-yl]-2-fluoro-phenyl]propanoic acid] | B (AUC @10 uM between 4-12) | A (T ≥ 8° C.)
5 | CS(=O)(=O)c1c(Oc2ccc(F)c(-c3nc4c([nH]3)C(c3cccc(CCC(=O)O)c3F)NCCC4)c2)c(F)cc2[nH]ccc12 (stereo not shown) [Example 22, 3-[2-fluoro-3-[2-[2-fluoro-5-[(6-fluoro-4-methylsulfonyl-1H-indol-5-yl)oxy]phenyl]-3,4,5,6,7,8-hexahydroimidazo[4,5-c]azepin-4-yl]phenyl]propanoic acid] | C (AUC @10 uM <= 4) | A (T ≥ 8° C.)
